Data on 30 compounds can be found in ChEMBL document CHEMBL5537153, “Modifications to 1-(4-(2-Bis(4-fluorophenyl)methyl)sulfinyl)alkyl Alicyclic Amines That Improve Metabolic Stability and Retain an Atypical DAT Inhibitor Profile” (J Med Chem, 2024).

For series [1], the target named is Sodium-dependent dopamine transporter (Rattus norvegicus, UniProt P23977). Briefly: Displacement of [3H]WIN35428 from DAT in Sprague-Dawley rat striatum incubated for 120 mins by scintillation counting analysis. The class given is tissue-based. (In general: In a radioligand displacement assay an active substance lowers the binding of a labelled ligand.)
Sequence of Sodium-dependent dopamine transporter (Rattus norvegicus, UniProt P23977) (P23977 whole entry): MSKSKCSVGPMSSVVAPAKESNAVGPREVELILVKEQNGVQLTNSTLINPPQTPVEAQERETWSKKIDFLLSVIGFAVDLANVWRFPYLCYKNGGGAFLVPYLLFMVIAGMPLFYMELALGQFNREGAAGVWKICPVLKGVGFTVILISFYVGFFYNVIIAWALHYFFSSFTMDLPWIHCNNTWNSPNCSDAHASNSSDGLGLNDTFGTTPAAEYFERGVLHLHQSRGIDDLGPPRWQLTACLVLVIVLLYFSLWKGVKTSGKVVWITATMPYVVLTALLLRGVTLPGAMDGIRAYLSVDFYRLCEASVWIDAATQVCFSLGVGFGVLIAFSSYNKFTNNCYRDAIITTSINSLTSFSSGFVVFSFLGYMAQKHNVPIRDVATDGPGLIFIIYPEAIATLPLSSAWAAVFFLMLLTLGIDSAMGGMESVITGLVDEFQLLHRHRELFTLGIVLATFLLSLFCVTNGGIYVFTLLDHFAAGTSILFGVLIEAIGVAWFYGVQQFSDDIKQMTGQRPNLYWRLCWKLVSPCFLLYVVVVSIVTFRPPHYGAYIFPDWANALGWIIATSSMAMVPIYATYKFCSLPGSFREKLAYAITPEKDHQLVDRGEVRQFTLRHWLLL
The species entered for another series is Rattus norvegicus. The series can be described thus: Selectivity ratio of Ki for SERT in Sprague-Dawley rat brainstem to Ki for DAT in Sprague-Dawley rat striatum.
Series [2] deals with Sodium-dependent serotonin transporter (Rattus norvegicus, UniProt P31652). Briefly: Displacement of [3H]citalopram from SERT in Sprague-Dawley rat brainstem incubated for 60 mins by scintillation counting analysis. The class given is tissue-based.
Sequence of Sodium-dependent serotonin transporter (P31652 whole entry): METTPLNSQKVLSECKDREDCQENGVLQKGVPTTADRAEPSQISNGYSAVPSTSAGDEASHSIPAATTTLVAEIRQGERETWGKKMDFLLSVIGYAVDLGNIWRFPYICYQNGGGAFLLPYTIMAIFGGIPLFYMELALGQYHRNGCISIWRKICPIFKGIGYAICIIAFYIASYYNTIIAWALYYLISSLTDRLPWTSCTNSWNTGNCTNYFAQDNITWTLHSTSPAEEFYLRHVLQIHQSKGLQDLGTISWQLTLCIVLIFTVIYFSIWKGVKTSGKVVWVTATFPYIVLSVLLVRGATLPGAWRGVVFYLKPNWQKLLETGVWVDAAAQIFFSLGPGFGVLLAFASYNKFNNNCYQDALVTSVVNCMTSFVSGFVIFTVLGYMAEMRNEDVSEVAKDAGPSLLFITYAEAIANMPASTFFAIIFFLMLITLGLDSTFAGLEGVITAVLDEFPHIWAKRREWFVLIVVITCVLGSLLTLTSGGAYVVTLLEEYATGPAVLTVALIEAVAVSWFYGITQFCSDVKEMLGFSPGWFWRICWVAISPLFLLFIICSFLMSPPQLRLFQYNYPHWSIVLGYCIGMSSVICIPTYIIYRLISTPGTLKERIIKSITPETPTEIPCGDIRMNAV
The target in series [3] is T1, Sodium-dependent dopamine transporter (Homo sapiens, UniProt Q01959). The series can be described thus: Displacement of [3H]WIN35428 from wild type human DAT expressed in COS-7 cells incubated for 1.5 hrs by scintillation counting analysis. The class given is cell-based.
T1 sequence (Q01959 whole entry): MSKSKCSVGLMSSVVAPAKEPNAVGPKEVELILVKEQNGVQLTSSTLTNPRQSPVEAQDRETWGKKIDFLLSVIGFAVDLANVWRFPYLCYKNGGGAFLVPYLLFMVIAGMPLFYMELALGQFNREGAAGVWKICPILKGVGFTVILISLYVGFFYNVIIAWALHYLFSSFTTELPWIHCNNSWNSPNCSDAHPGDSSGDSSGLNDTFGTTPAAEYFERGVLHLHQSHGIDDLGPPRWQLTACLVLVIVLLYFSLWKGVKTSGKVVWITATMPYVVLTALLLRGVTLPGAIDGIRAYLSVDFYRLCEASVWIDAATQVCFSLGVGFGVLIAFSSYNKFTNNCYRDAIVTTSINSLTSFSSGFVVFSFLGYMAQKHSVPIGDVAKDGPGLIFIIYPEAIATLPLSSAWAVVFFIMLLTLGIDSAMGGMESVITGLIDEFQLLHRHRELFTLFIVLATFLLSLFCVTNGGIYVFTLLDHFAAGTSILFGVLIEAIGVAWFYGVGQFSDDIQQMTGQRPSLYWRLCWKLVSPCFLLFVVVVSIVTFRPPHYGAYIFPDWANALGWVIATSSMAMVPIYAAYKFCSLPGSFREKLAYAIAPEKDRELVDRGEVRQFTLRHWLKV
The nature of series [4]: Displacement of [3H]nisoxetine from NET in Sprague-Dawley rat prefrontal cortex incubated for 180 mins by microbeta microscintillation counting analysis. Type of series: tissue-based.
The target in series [5] is T1, Sodium-dependent dopamine transporter. The series can be described thus: Inhibition of [3H]dopamine uptake from wild type human DAT expressed in COS-7 cells preincubated for 30 mins followed by [3H]dopamine addition and measured after 5 mins by beta scintillation counting analysis. The class given is cell-based.
A short description of series [6]: Metabolic stability of the compound in rat liver microsomes assessed as parent compound remaining at 10 uM measured after 60 mins in presence of NADPH regenerating system by LC/MS analysis. Type of series: ADME, Microsome. Conditions: for Stability: microsomes, 1 h, 10 µM. (Liver microsomes are vesicles of endoplasmic reticulum, rich in cytochrome P450 enzymes.)

Series [7] in a line: Induction of behavioural effects in wild type C57BL/6J mouse assessed as locomotor activity at 3 to 30 mg/kg, ip measured every 10 mins for 3 hrs by open field test. Conditions: in vivo, dose 3-30 mg/kg; call rule not given here. The class given is toxicity, organism-based.
Series [8] can be described thus: Displacement of [3H]WIN35428 from human DAT Y156F mutant expessed in COS-7 cells incubated for 1.5 hrs by beta scintillation counting analysis. The class given is cell-based.
Series [9] is described as follows: Metabolic stability of the compound in mouse liver microsomes assessed as parent compound remaining at 10 uM measured after 60 mins in presence of NADPH regenerating system by LC/MS analysis. The class given is ADME, Microsome. The note with it: read-out: Stability.
Series [10] is described as follows: Inhibition of [3H]dopamine uptake from human DAT Y335A mutant expressed in COS-7 cells preincubated for 30 mins followed by [3H]dopamine addition and measured after 10 mins by beta scintillation counting analysis. The class given is cell-based.
Series [11] can be described thus: Induction of behavioural effects in wild type C57BL/6J mouse assessed as increase in locomotor activity at 30 mg/kg, ip measured after 20 mins by open field test. Type of series: toxicity, organism-based. The note with it: in vivo.

Turning to `COc1ccc(CC(O)CN2CCCN(CCSC(c3ccc(F)cc3)c3ccc(F)cc3)CC2)cc1` (configuration not stated), the Ki – broadly, a dissociation constant, usually derived from enzyme kinetics or from competition with a known ligand – in series [1] was determined as 16.5 nM; in series [2], 360 nM. In addition, in the series listed under Rattus norvegicus, the Ratio Ki worked out at 22.

Consider `COc1ccc(N2CCN(CC[S+]([O-])C(c3ccc(F)cc3)c3ccc(F)cc3)CC2)cc1` (configuration not stated), for which the Ki came to 6300 nM in [1] and 18100 nM in [2]. In addition, in the series listed under Rattus norvegicus, the Ratio Ki was 3.

As for `CC(O)CN1CCC(CC[S+]([O-])C(c2ccc(F)cc2)c2ccc(F)cc2)CC1` (configuration not stated), the Ki in series [3] was 355 nM; in series [4] it was greater than 100000 nM; in series [5], 949 nM; in series [1], 180 nM; in [2], 16100 nM; in series [8], 2360 nM. Moreover, the Stability in series [6] worked out at 100%. Besides, the Ratio Ki in the series filed under Rattus norvegicus stood at 89. In series [7], the Activity result is reported as “Non-Toxic”.

`CC(O)CN1CCCN(CC[S+]([O-])C(c2ccc(F)cc2)c2ccc(F)cc2)CC1` (configuration not stated): the Ki was 417 nM in [1] and 26000 nM in [2]. For the same compound, the Ratio Ki in the series filed under Rattus norvegicus amounted to 62.

For the compound `C[C@@H](O)CN1CCC(CC[S+]([O-])C(c2ccc(F)cc2)c2ccc(F)cc2)CC1` (some centres not stated), the figures for the Ki in [1] and in [2] were 276 nM and 34800 nM, respectively. The Ratio Ki in the series filed under Rattus norvegicus stood at 126.

`COc1ccc(CC(O)CN2CCCN(CC[S+]([O-])C(c3ccc(F)cc3)c3ccc(F)cc3)CC2)cc1` (configuration not stated): in series [9], the remaining at 1 h, 10 µM was found to be 20%. Besides, the inhibition constant (Ki) came out at 33.4 nM in [1] and 2670 nM in series [2]. Moreover, the Ratio Ki in the series listed under Rattus norvegicus is 80.

As to `CC(O)CN1CCN(CCSC(c2ccc(F)cc2)c2ccc(F)cc2)CC1` (configuration not stated), in series [9], the remaining at 1 h, 10 µM turned out to be 6%.

As for `CC(F)CN1[C@H](C)CN(CC[S+]([O-])C(c2ccc(F)cc2)c2ccc(F)cc2)C[C@@H]1C` (some centres not stated), the values for the Ki in series [1] and in series [2] were 1050 nM and greater than 100000 nM, respectively. In the series filed under Rattus norvegicus, the Ratio Ki was greater than 95.

`Fc1ccc(C(SCCN2CCN(c3ccncc3)CC2)c2ccc(F)cc2)cc1`: the inhibitory constant (Ki) in [3] worked out at 106 nM; in series [5], 326 nM; in series [1], 91.6 nM; in [10], 4050 nM; in series [2] it was 136 nM; in series [8], 393 nM. Besides, the Ratio Ki in the series listed under Rattus norvegicus amounted to 1.

With `Fc1ccc(C(SCCN2CCCN(c3ncccn3)CC2)c2ccc(F)cc2)cc1`, the Ki in [1] amounted to 508 nM; in series [2] it was 732 nM. Further, the Ratio Ki in the series filed under Rattus norvegicus worked out at 1.

With `CC(O)CN1CCN(CC[S+]([O-])C(c2ccc(F)cc2)c2ccc(F)cc2)CC1` (configuration not stated), the Ki turned out to be 1020 nM in series [3], 917 nM in series [5], 14400 nM in [10] and 7560 nM in [8]. For the same compound, the remaining at 1 h, 10 µM in series [6] (liver microsomes, read-out: Stability) was determined as 72%. Further, the Activity entry in series [7] is “Non-Toxic”.

Turning to `[O-][S+](CCN1CCCN(CC(O)Cc2ccc(F)cc2)CC1)C(c1ccc(F)cc1)c1ccc(F)cc1` (configuration not stated), in series [9], the remaining at 1 h, 10 µM is 15%. Besides, the Ki in [1] was 6.81 nM; in series [2], 2150 nM. Besides, the Ratio Ki in the series filed under Rattus norvegicus was determined as 316.

Take `CC(O)CN1C(C)CN(CCSC(c2ccc(F)cc2)c2ccc(F)cc2)CC1C` (configuration not stated): the remaining at 1 h, 10 µM in series [9] is 68%.

On to `CC(F)CN1[C@H](C)CN(CCSC(c2ccc(F)cc2)c2ccc(F)cc2)C[C@@H]1C` (some centres not stated), for which the inhibitory constant (Ki) in [1] amounted to 135 nM; in series [2] it was 13400 nM. Also, in the series filed under Rattus norvegicus, the Ratio Ki worked out at 99.

On to `[O-][S+](CCC1CCN(CC(O)Cc2ccccc2)CC1)C(c1ccc(F)cc1)c1ccc(F)cc1` (configuration not stated), for which the Stability in series [6] is 68%. Also, the inhibitory constant (Ki) was 2.64 nM in [1] and 818 nM in series [2]. Also, the Ratio Ki in the series filed under Rattus norvegicus is 310.

For `[O-][S+](CCN1CCCN(CC(O)Cc2ccccc2)CC1)C(c1ccc(F)cc1)c1ccc(F)cc1` (configuration not stated), the Ki stood at 32 nM in series [3]; 4040 nM in series [4]; 40 nM in [5]; 8.37 nM in series [1]; 1440 nM in [10]; 3520 nM in series [2]. Also, in [8], the Ki turned out to be 184 nM. Besides, the remaining at 1 h, 10 µM in series [9] was found to be 0%. Also, in the series filed under Rattus norvegicus, the Ratio Ki is 421. Moreover, in [7], the Activity result is recorded as “Non-Toxic”.

Turning to `C[C@H](O)CN1CCC(CC[S+]([O-])C(c2ccc(F)cc2)c2ccc(F)cc2)CC1` (some centres not stated), the inhibition constant Ki in series [1] stood at 382 nM; in [2] it was 14300 nM. Also, the Ratio Ki in the series listed under Rattus norvegicus turned out to be 37.

Turning to `[O-][S+](CCN1CCCN(c2ncccn2)CC1)C(c1ccc(F)cc1)c1ccc(F)cc1` (configuration not stated), the Ki came to 24800 nM in [1] and 28000 nM in series [2]. Moreover, the Ratio Ki in the series listed under Rattus norvegicus was determined as 1.

As for `OC(Cc1ccc(F)cc1)CN1CCCN(CCSC(c2ccc(F)cc2)c2ccc(F)cc2)CC1` (configuration not stated), the figures for the Ki in series [1] and in series [2] were 14.3 nM and 504 nM, respectively. Besides, the Ratio Ki in the series filed under Rattus norvegicus was 35.

On to `OC(Cc1ccccc1)CN1CCCN(CCSC(c2ccc(F)cc2)c2ccc(F)cc2)CC1` (configuration not stated), for which the values for the Ki in series [1] and in series [2] were 7.23 nM and 288 nM, respectively. The Ratio Ki in the series filed under Rattus norvegicus is 40.

As to `[O-][S+](CCN1CCN(CC(O)Cc2ccccc2)CC1)C(c1ccc(F)cc1)c1ccc(F)cc1` (configuration not stated), the inhibitory constant (Ki) in [3] worked out at 10.7 nM; in [5], 0.806 nM; in series [10] it was 537 nM; in series [8], 116 nM. Moreover, the remaining at 1 h, 10 µM in [9] was found to be 34%. The Activity result in [11] is given as “Toxic”.

Turning to `C[C@@H](O)CN1CCC(CCSC(c2ccc(F)cc2)c2ccc(F)cc2)CC1`, the values for the Ki in series [1] and in series [2] were 84.5 nM and 759 nM, respectively. In the series filed under Rattus norvegicus, the Ratio Ki was 9.

`OC(Cc1ccccc1)CN1CCC(CCSC(c2ccc(F)cc2)c2ccc(F)cc2)CC1` (configuration not stated): the inhibition constant (Ki) in series [1] turned out to be 5.83 nM; in series [2], 201 nM. For the same compound, in the series filed under Rattus norvegicus, the Ratio Ki came out at 34.

Regarding `[O-][S+](CCN1CCN(c2ncccn2)CC1)C(c1ccc(F)cc1)c1ccc(F)cc1` (configuration not stated), the inhibition constant (Ki) in [1] was determined as 22100 nM; in series [2], 46300 nM. Also, the Ratio Ki in the series listed under Rattus norvegicus turned out to be 2.

For `Fc1ccc(C(SCCN2CCN(c3ncccn3)CC2)c2ccc(F)cc2)cc1`, the inhibition constant Ki in series [1] was 725 nM; in series [2] it was 923 nM. Moreover, in the series filed under Rattus norvegicus, the Ratio Ki worked out at 1.

On to `C[C@H](O)CN1CCC(CCSC(c2ccc(F)cc2)c2ccc(F)cc2)CC1`, for which the Ki in series [1] stood at 34.5 nM; in series [2], 1200 nM. In the series filed under Rattus norvegicus, the Ratio Ki amounted to 35.

Turning to `CC(O)CN1CCCN(CCSC(c2ccc(F)cc2)c2ccc(F)cc2)CC1` (configuration not stated), the Ki is 80 nM in series [3]; 163 nM in series [5]; 63.4 nM in [1]; 3300 nM in series [10]; 2430 nM in [2]; 232 nM in series [8]. Further, the remaining at 1 h, 10 µM in series [9] was determined as 12%. In the series filed under Rattus norvegicus, the Ratio Ki turned out to be 38.

With `[O-][S+](CCN1CCN(c2ccncc2)CC1)C(c1ccc(F)cc1)c1ccc(F)cc1` (configuration not stated), the Ki in [1] was found to be 2480 nM; in series [2] it was 3460 nM. Further, the Ratio Ki in the series filed under Rattus norvegicus is 1.

As for `CC(O)CN1CCC(CCSC(c2ccc(F)cc2)c2ccc(F)cc2)CC1` (configuration not stated), the inhibition constant Ki in series [1] is 67 nM; in [2] it was 1920 nM. Moreover, the Ratio Ki in the series filed under Rattus norvegicus turned out to be 29.

Regarding `COc1ccc(N2CCN(CCSC(c3ccc(F)cc3)c3ccc(F)cc3)CC2)cc1`, the inhibition constant (Ki) stood at 662 nM in series [1] and 780 nM in series [2]. For the same compound, the Ratio Ki in the series listed under Rattus norvegicus came out at 1.
